For five molecules, IC50 and viability, T/C results are on record in PubChem BioAssay AID2060898 (Molecular Pharmacology Branch, DTP, NCI, 2025).

The test system of the assay is 616215-338-R-J1-PDC complex spheroid viability. The assay can be described thus: Anticancer human tumor 616215-338-R-J1-PDC patient-derived colon adenocarcinoma cell line growth inhibition [RAS]. As to conditions: for viability, T/C: stronger effect = lower value. In outline:
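Multi-cell-type spheroids: tumor cells plus HUVEC endothelial cells and mesenchymal stem cells. RAS-pathway inhibitors were combined with targeted agents, each dosed in half-log steps down from clinical Cmax, or from 10 microM when Cmax was unknown.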

Setting [1] is: curve of first compound, second compound 0.000949 µM.
[2] abbreviates: curve of first compound, second compound 0.003 µM.
Setting [3] is: curve of first compound, second compound 0.00949 µM.
Where [4] appears, read: curve of first compound, second compound 0.03 µM.
The mark [5] stands for this setting: curve of first compound, second compound 0.0949 µM.
The mark [6] stands for this setting: curve of first compound, second compound 0.3 µM.

Where “and” joins values, the source holds several entries; their conditions need not be identical. Identical values can stand only once.
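Note: spheroids exposed to agents for seven days before viability readout.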
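Throughout, for viability, T/C: 100% = DMSO vehicle control viability.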

`NC1c2ccccc2OC12CCN(c1cnc3c(N4CCCc5ncccc54)n[nH]c3n1)CC2` (stereo not drawn) + CCn1c(-c2cccnc2C(C)OC)c2c3cc(ccc31)N1CCOC(CC(NC(=O)C(C(C)C)N(C)C(=O)C3(F)CCN(C(=O)C#CC(C)(C)N(C)C)CC3)C(=O)N3CCCC(N3)C(=O)OCC(C)(C)C2)C1: the IC50 runs as follows: under setting [1], 6250 nM; under setting [2], 7000 nM; under setting [3], above 10000 nM; under setting [4], 2960 nM; under setting [5], 1700 nM; under setting [6], 564 nM. Besides, the viability, T/C runs as follows: (second compound 0.000949 µM, first compound 0.0316 µM) 121%; (second compound 0.000949 µM, first compound 0.1 µM) 92.4%; (second compound 0.000949 µM, first compound 0.316 µM) 81.9%; (second compound 0.000949 µM, first compound 1 µM) 67.8%; (second compound 0.000949 µM, first compound 3.16 µM) 61%; (second compound 0.000949 µM, first compound 10 µM) 43.1%. Moreover, the viability, T/C was 119% (second compound 0.003 µM, first compound 0.0316 µM); 94.7% (second compound 0.003 µM, first compound 0.1 µM); 75.5% (second compound 0.003 µM, first compound 0.316 µM); 64.8% (second compound 0.003 µM, first compound 1 µM); 64.2% (second compound 0.003 µM, first compound 3.16 µM); 43% (second compound 0.003 µM, first compound 10 µM). The viability, T/C by setting is: (second compound 0.00949 µM, first compound 0.0316 µM) 113%; (second compound 0.00949 µM, first compound 0.1 µM) 85.2%; (second compound 0.00949 µM, first compound 0.316 µM) 72.7%; (second compound 0.00949 µM, first compound 1 µM) 59%; (second compound 0.00949 µM, first compound 3.16 µM) 64.6%; (second compound 0.00949 µM, first compound 10 µM) 49.5%. Moreover, the viability, T/C runs as follows: (second compound 0.03 µM, first compound 0.0316 µM) 106%; (second compound 0.03 µM, first compound 0.1 µM) 85.1%; (second compound 0.03 µM, first compound 0.316 µM) 76.9%; (second compound 0.03 µM, first compound 1 µM) 56.4%; (second compound 0.03 µM, first compound 3.16 µM) 56.7%; (second compound 0.03 µM, first compound 10 µM) 35%. Moreover, the viability, T/C is, setting by setting: (second compound 0.0949 µM, first compound 0.0316 µM) 105%; (second compound 0.0949 µM, first compound 0.1 µM) 75.7%; (second compound 0.0949 µM, first compound 0.316 µM) 59.4%; (second compound 0.0949 µM, first compound 1 µM) 56.3%; (second compound 0.0949 µM, first compound 3.16 µM) 51.8%; (second compound 0.0949 µM, first compound 10 µM) 38.5%. For the same molecule, the viability, T/C was 73.4% (second compound 0.3 µM, first compound 0.0316 µM); 58% (second compound 0.3 µM, first compound 0.1 µM); 56.2% (second compound 0.3 µM, first compound 0.316 µM); 46.6% (second compound 0.3 µM, first compound 1 µM); 42.8% (second compound 0.3 µM, first compound 3.16 µM); 41% (second compound 0.3 µM, first compound 10 µM).
Turning to `CC1(C)CCC(Nc2ncc(C(F)(F)F)c(-c3c[nH]c4c(P(C)(C)=O)c(C#N)ccc34)n2)CN1` (stereo not drawn) + CCn1c(-c2cc(N3CCN(C)CC3)cnc2C(C)OC)c2c3cc(ccc31)-c1csc(n1)CC(NC(=O)C1CC1C)C(=O)N1CCCC(N1)C(=O)OCC(C)(C)C2, the IC50 reads like this: under setting [1], 17.7 nM; under setting [2], 14.1 nM; under setting [3], 7.66 nM; under setting [4], 7.94 nM; under setting [5], below 0.949 nM; under setting [6], below 0.949 nM. Also, the viability, T/C is 117% (second compound 0.000949 µM, first compound 0.000949 µM); 92.4% (second compound 0.000949 µM, first compound 0.003 µM); 65.2% (second compound 0.000949 µM, first compound 0.00949 µM); 35.7% (second compound 0.000949 µM, first compound 0.03 µM); 32.2% (second compound 0.000949 µM, first compound 0.0949 µM); 39.1% (second compound 0.000949 µM, first compound 0.3 µM). Moreover, the viability, T/C (second compound 0.003 µM, first compound 0.000949 µM) was 122%; the viability, T/C (second compound 0.003 µM, first compound 0.003 µM) is 98.1%; the viability, T/C (second compound 0.003 µM, first compound 0.00949 µM) is 56.4%; the viability, T/C (second compound 0.003 µM, first compound 0.03 µM) was 37%; the viability, T/C (second compound 0.003 µM, first compound 0.0949 µM) was 37.5%; the viability, T/C (second compound 0.003 µM, first compound 0.3 µM) was 39.6%. Further, the viability, T/C by setting is: (second compound 0.00949 µM, first compound 0.000949 µM) 82.9%; (second compound 0.00949 µM, first compound 0.003 µM) 73.8%; (second compound 0.00949 µM, first compound 0.00949 µM) 44.6%; (second compound 0.00949 µM, first compound 0.03 µM) 38.6%; (second compound 0.00949 µM, first compound 0.0949 µM) 37.1%; (second compound 0.00949 µM, first compound 0.3 µM) 40.8%. Besides, the viability, T/C runs as follows: (second compound 0.03 µM, first compound 0.000949 µM) 65.7%; (second compound 0.03 µM, first compound 0.003 µM) 61.7%; (second compound 0.03 µM, first compound 0.00949 µM) 47.6%; (second compound 0.03 µM, first compound 0.03 µM) 32.4%; (second compound 0.03 µM, first compound 0.0949 µM) 39%; (second compound 0.03 µM, first compound 0.3 µM) 40.1%. Besides, the viability, T/C runs as follows: (second compound 0.0949 µM, first compound 0.000949 µM) 45.8%; (second compound 0.0949 µM, first compound 0.003 µM) 44.3%; (second compound 0.0949 µM, first compound 0.00949 µM) 39.2%; (second compound 0.0949 µM, first compound 0.03 µM) 39.3%; (second compound 0.0949 µM, first compound 0.0949 µM) 36.9%; (second compound 0.0949 µM, first compound 0.3 µM) 32.9%. Moreover, the viability, T/C (second compound 0.3 µM, first compound 0.000949 µM) is 37.5%; the viability, T/C (second compound 0.3 µM, first compound 0.003 µM) is 46%; the viability, T/C (second compound 0.3 µM, first compound 0.00949 µM) is 42%; the viability, T/C (second compound 0.3 µM, first compound 0.03 µM) is 32.6%; the viability, T/C (second compound 0.3 µM, first compound 0.0949 µM) is 38.5%; the viability, T/C (second compound 0.3 µM, first compound 0.3 µM) was 39.2%.
Turning to `Nc1ccn(C2OC(CO)C(O)C2(F)F)c(=O)n1` (stereo not drawn), the viability, T/C is 101% [middle of 4 runs] (compound 0.00316 µM); 46.9% [middle of 4 runs] (compound 0.01 µM); 29.4% [middle of 4 runs] (compound 0.0316 µM); 16.2% [middle of 4 runs] (compound 0.1 µM); 15.4% [middle of 4 runs] (compound 0.316 µM); 15.7% [middle of 4 runs] (compound 1 µM). Further, the IC50 (curve of compound) is 9.77 nM [middle of 4 runs].
On to `CCC(CC)c1cc(NC2CCC(N)C2)n2nccc2n1` (stereo not drawn), for which the viability, T/C (compound 0.0316 µM) was 109% [middle of 4 runs]; the viability, T/C (compound 0.1 µM) is 99.7% and 102% (2×) and 93.3%; the viability, T/C (compound 0.316 µM) is 93.8% [middle of 4 runs]; the viability, T/C (compound 1 µM) is 107% [middle of 4 runs]; the viability, T/C (compound 3.16 µM) is 0.63% [middle of 4 runs]; the viability, T/C (compound 10 µM) is 0.37% [middle of 4 runs]. In addition, the IC50 (curve of compound) is 1.8 µM [middle of 4 runs].
With `NC1c2ccccc2OC12CCN(c1cnc3c(N4CCCc5ncccc54)n[nH]c3n1)CC2` (stereo not drawn), the viability, T/C (compound 0.0316 µM) was 114% [middle of 4 runs]; the viability, T/C (compound 0.316 µM) was 92.2% [middle of 4 runs]; the viability, T/C (compound 1 µM) was 76.5% [middle of 4 runs]; the viability, T/C (compound 10 µM) is 55.8% [middle of 4 runs]. Also, the 50% inhibitory concentration (IC50) (curve of compound) was > 10000 nM and 3160 nM and 6760 nM.

A word on the IC50: it is the concentration needed to halve the response being measured. As a reminder, the viability, T/C is the ratio of treated to control.
